From patent publication US11053204B2, “Pyrimidinyloxy benzene derivatives as herbicides” (FMC Corporation, priority 2015, dated 2021)

Experiments:
Format in all cases: in vivo
[1] = test system: johnsongrass (Sorghum halepense); assay: Test C preemergence, plant response rating
[2] = test system: galium (catchweed bedstraw, Galium aparine); assay: Test C preemergence, plant response rating
[3] = test system: surinam grass (Brachiaria decumbens); assay: Test C preemergence, plant response rating
[4] = test system: windgrass (Apera spica-venti); assay: Test C postemergence, plant response rating; settings: for Plant response rating, Windgrass: scale 0 to 100; for Windgrass plant response rating: scale 0 to 100 (0 no effect, 100 complete control)
Summary of the method: (§1)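 Preemergence: seeds sown in loam–sand blend or silt loam and sprayed with test chemicals in a non-phytotoxic surfactant-containing solvent. Postemergence: potted plants at 2–18 cm (1–4-leaf stage) sprayed with the same formulation. After 13–15 d in greenhouse, visual rating versus controls on 0 (no effect) to 100 (complete control) scale.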

[5] = test system: field violet (Viola arvensis); assay: Test C postemergence, plant response rating; settings: for Plant response rating, Field Violet: scale 0 to 100; for Field Violet plant response rating: scale 0 to 100 (0 no effect, 100 complete control)
Summary of the method: as §1

[6] = test system: Canada thistle (Cirsium arvense); assay: Test C postemergence, plant response rating; settings: for Plant response rating, Canada Thistle: scale 0 to 100; for Canada Thistle plant response rating: scale 0 to 100 (0 no effect, 100 complete control)
Summary of the method: as §1

[7] = test system: buckwheat, wild (wild buckwheat, Polygonum convolvulus); assay: Test C postemergence, plant response rating; settings: for Plant response rating, Buckwheat, Wild: scale 0 to 100; for Buckwheat, Wild plant response rating: scale 0 to 100 (0 no effect, 100 complete control)
Summary of the method: as §1

[8] = test system: field poppy (Papaver rhoeas); assay: Test C postemergence, plant response rating; settings: for Plant response rating, Field Poppy: scale 0 to 100; for Field Poppy plant response rating: scale 0 to 100 (0 no effect, 100 complete control)
Summary of the method: as §1

[9] = test system: geranium, cutleaf (cutleaf geranium, Geranium dissectum); assay: Test C postemergence, plant response rating; settings: for Plant response rating, Geranium, Cutleaf: scale 0 to 100; for Geranium, Cutleaf plant response rating: scale 0 to 100 (0 no effect, 100 complete control)
Summary of the method: as §1

[10] = test system: nightshade (eastern black nightshade, Solanum ptycanthum); assay: Test C postemergence, plant response rating; settings: for Plant response rating, Nightshade: scale 0 to 100; for Nightshade plant response rating: scale 0 to 100 (0 no effect, 100 complete control)
Summary of the method: as §1

[11] = test system: pigweed, palmer (palmer pigweed, Amaranthus palmeri); assay: Test C postemergence, plant response rating; settings: for Plant response rating, Pigweed, Palmer: scale 0 to 100; for Pigweed, Palmer plant response rating: scale 0 to 100 (0 no effect, 100 complete control)
Summary of the method: as §1

[12] = test system: speedwell (bird's-eye speedwell, Veronica persica); assay: Test C postemergence, plant response rating; settings: for Plant response rating, Speedwell: scale 0 to 100; for Speedwell plant response rating: scale 0 to 100 (0 no effect, 100 complete control)
Summary of the method: as §1

[13] = test system: barnyardgrass (Echinochloa crus-galli); assay: Test C preemergence, plant response rating; settings: Preemergence
[14] = test system: oat, wild (wild oat Avena fatua); assay: Test C preemergence, plant response rating
[15] = test system: nightshade (eastern black nightshade, Solanum ptycanthum); assay: Test C preemergence, plant response rating
[16] = test system: windgrass (Apera spica-venti); assay: Test C preemergence, plant response rating
[17] = test system: pigweed, palmer (palmer pigweed, Amaranthus palmeri); assay: Test C preemergence, plant response rating
[18] = test system: wild poinsettia (Euphorbia heterophylla); assay: Test C preemergence, plant response rating

## CCCC(=O)c1c(Br)cccc1Oc1ncc(Cl)cn1 [Compound 75]
[1]; 16 g ai/ha, scale 0 to 100
  Plant response rating, Johnsongrass: 0
[1]; 31 g ai/ha, scale 0 to 100
  Plant response rating, Johnsongrass: 0
[1]; 62 g ai/ha, scale 0 to 100
  Plant response rating, Johnsongrass: 30
[1]; 125 g ai/ha, scale of 0 to 100
  Plant response rating, Johnsongrass: 70
[2]; 16 g ai/ha, scale 0 to 100
  Plant response rating, Galium: 0
[2]; 31 g ai/ha, scale 0 to 100
  Plant response rating, Galium: 0
[2]; 62 g ai/ha, scale of 0 to 100
  Plant response rating, Galium: 5
[2]; 125 g ai/ha, scale of 0 to 100
  Plant response rating, Galium: 0
[3]; 16 g ai/ha, scale 0 to 100
  Plant response rating, Surinam Grass: 0
[3]; 31 g ai/ha, scale 0 to 100
  Plant response rating, Surinam Grass: 30
[3]; 62 g ai/ha, scale 0 to 100
  Plant response rating, Surinam Grass: 35
[3]; 125 g ai/ha, scale of 0 to 100
  Plant response rating, Surinam Grass: 80
[4]; 16 g ai/ha
  Plant response rating, Windgrass: 0
[4]; 31 g ai/ha
  Plant response rating, Windgrass: 5
[4]; 62 g ai/ha
  Windgrass plant response rating: 10
[4]; 125 g ai/ha
  Windgrass plant response rating: 5
[5]; 16 g ai/ha
  Plant response rating, Field Violet: 80
[5]; 31 g ai/ha
  Plant response rating, Field Violet: 98
[5]; 62 g ai/ha
  Field Violet plant response rating: 98
[5]; 125 g ai/ha
  Field Violet plant response rating: 100
[6]; 16 g ai/ha
  Plant response rating, Canada Thistle: 70
[6]; 31 g ai/ha
  Plant response rating, Canada Thistle: 75
[6]; 62 g ai/ha
  Canada Thistle plant response rating: 75
[6]; 125 g ai/ha
  Canada Thistle plant response rating: 100
[7]; 16 g ai/ha
  Plant response rating, Buckwheat, Wild: 45
[7]; 31 g ai/ha
  Plant response rating, Buckwheat, Wild: 60
[7]; 62 g ai/ha
  Buckwheat, Wild plant response rating: 80
[7]; 125 g ai/ha
  Buckwheat, Wild plant response rating: 85
[8]; 16 g ai/ha
  Plant response rating, Field Poppy: 70
[8]; 31 g ai/ha
  Plant response rating, Field Poppy: 80
[8]; 62 g ai/ha
  Field Poppy plant response rating: 80
[8]; 125 g ai/ha
  Field Poppy plant response rating: 100
[9]; 16 g ai/ha
  Plant response rating, Geranium, Cutleaf: 30
[9]; 31 g ai/ha
  Plant response rating, Geranium, Cutleaf: 40
[9]; 62 g ai/ha
  Geranium, Cutleaf plant response rating: 35
[9]; 125 g ai/ha
  Geranium, Cutleaf plant response rating: 65
[10]; 16 g ai/ha
  Plant response rating, Nightshade: 75
[10]; 31 g ai/ha
  Plant response rating, Nightshade: 80
[10]; 62 g ai/ha
  Nightshade plant response rating: 85
[10]; 125 g ai/ha
  Nightshade plant response rating: 98
[11]; 16 g ai/ha
  Plant response rating, Pigweed, Palmer: 75
[11]; 31 g ai/ha
  Plant response rating, Pigweed, Palmer: 90
[11]; 62 g ai/ha
  Pigweed, Palmer plant response rating: 95
[11]; 125 g ai/ha
  Pigweed, Palmer plant response rating: 85
[12]; 16 g ai/ha
  Plant response rating, Speedwell: 90
[12]; 31 g ai/ha
  Plant response rating, Speedwell: 95
[12]; 62 g ai/ha
  Speedwell plant response rating: 100
[12]; 125 g ai/ha
  Speedwell plant response rating: 100
[13]; 62 g ai/ha, scale of 0 to 100
  Plant response rating, Barnyardgrass: 80
[13]; 125 g ai/ha, scale of 0 to 100
  Plant response rating, Barnyardgrass: 100
[13]; 16 g ai/ha, scale 0 to 100
  Plant response rating, Barnyardgrass: 5
[13]; 31 g ai/ha, scale 0 to 100
  Plant response rating, Barnyardgrass: 60
[14]; 16 g ai/ha, scale 0 to 100
  Plant response rating, Oat, Wild: 0
[14]; 31 g ai/ha, scale 0 to 100
  Plant response rating, Oat, Wild: 0
[14]; 62 g ai/ha, scale 0 to 100
  Plant response rating, Oat, Wild: 0
[14]; 125 g ai/ha, scale of 0 to 100
  Plant response rating, Oat, Wild: 5
[15]; 16 g ai/ha, scale 0 to 100
  Plant response rating, Nightshade: 40
[15]; 31 g ai/ha, scale 0 to 100
  Plant response rating, Nightshade: 75
[15]; 62 g ai/ha, scale 0 to 100
  Plant response rating, Nightshade: 75
[15]; 125 g ai/ha, scale of 0 to 100
  Plant response rating, Nightshade: 80
[16]; 16 g ai/ha, scale 0 to 100
  Plant response rating, Windgrass: 5
[16]; 31 g ai/ha, scale 0 to 100
  Plant response rating, Windgrass: 45
[16]; 62 g ai/ha, scale 0 to 100
  Plant response rating, Windgrass: 100
[16]; 125 g ai/ha, scale of 0 to 100
  Plant response rating, Windgrass: 100
[17]; 16 g ai/ha, scale 0 to 100
  Plant response rating, Pigweed, Palmer: 70
[17]; 31 g ai/ha, scale 0 to 100
  Plant response rating, Pigweed, Palmer: 100
[17]; 62 g ai/ha, scale 0 to 100
  Plant response rating, Pigweed, Palmer: 95
[17]; 125 g ai/ha, scale of 0 to 100
  Plant response rating, Pigweed, Palmer: 100
[18]; 16 g ai/ha, scale 0 to 100
  Plant response rating, Poinsettia, Wild: 10
[18]; 31 g ai/ha, scale 0 to 100
  Plant response rating, Poinsettia, Wild: 40
[18]; 62 g ai/ha, scale 0 to 100
  Plant response rating, Poinsettia, Wild: 35
[18]; 125 g ai/ha, scale of 0 to 100
  Plant response rating, Poinsettia, Wild: 35
